In brackets after ≈: the same amount, converted by molar mass. Where a name gives a salt, the structure may show the parent alone.
Assays:
MES-SA/Dx5 cell line = experiment: Effect on multidrug resistance of MES-SA/Dx5 cell line; assay type: cell-based; conditions: Homo sapiens; paclitaxel resistance, MES-SA/Dx5 (P-glycoprotein overexpression), 48 hours; read-out: Resistance overcoming effect EC50
Method: Human uterine cancer MES-SA cell line or MES-SA/Dx5 cell line which had acquired multidrug resistance through overexpression of P-glycoprotein [Cancer Res. 45, 4091-4096 (1985)] was suspended in 10% FBS/DMEM, and the resultant suspension was inoculated into a 96-well microplate, followed by culturing at 5% CO2 and 37° C. overnight (3×10^3 cells/50 μL/well). Thereafter, a solution of a diphenylacrylonitrile derivative and paclitaxel in 10% FBS/DMEM (25 μL) was added to each of the wells, followed by culturing at 5% CO2 and 37° C. for 48 hours. After completion of culturing, the number of viable cells was counted by use of TetraColor ONE according to the attached instruction manual.

A549/SN-38-4 cell line [1] = experiment: Overcoming anticancer drug resistance of A549/SN-38-4 cell line; assay type: cell-based, human; conditions: for EC50: Homo sapiens, A549, SN-38 resistance, concentration for 50% reduction of relative resistance value, 48 hours, read-out: Resistance overcoming effect EC50
Method: The effect of a diphenylacrylonitrile derivative on BCRP-mediated anticancer drug resistance was studied by use of the human lung cancer A549/SN-38-4 cell line, which had acquired anticancer drug resistance through BCRP expression. The human lung cancer A549 cell line or the A549/SN-38-4 cell line was suspended in 10% FBS/Ham's F-12, and the resultant suspension was inoculated into a 96-well microplate, followed by culturing at 5% CO2 and 37° C. overnight (2×10^3 cells/50 μL/well). Thereafter, a 10% FBS/Ham's F-12 solution (25 μL) containing a diphenylacrylonitrile derivative and SN-38 or mitoxantrone was added to each of the wells, followed by culturing at 5% CO2 and 37° C. for 48 hours. After completion of culturing, the number of viable cells was counted by use of TetraColor ONE according to the attached instruction manual. […] The greater the relative resistance value, the higher the level of acquired resistance.

P388/BCRP cell line = experiment: Overcoming anticancer drug resistance in vivo (survival of tumor-implanted mice); parameters: species or system CDF1 mice; conditions: compound 100 mg/kg/day + CPT-11 20 mg/kg/day i.p. once a day, 10 administrations
A549/SN-38-4 cell line [2] = experiment: Anticancer drug sensitivity test, A549/SN-38-4; assay type: cell-based, human
Method: (§1) Human non-small cell lung cancer A549 cell line was subcultured at 5% CO2 and 37° C. by use of a Ham's F-12 medium containing 10% FBS, 100 U/mL of penicillin, and 100 μg/mL of streptomycin (10% FBS/Ham's F-12). SN-38-resistant A549 cell lines were selected by subculturing the A549 cell line in a medium for two months while the concentration of SN-38 contained in the medium was increased in a stepwise manner (4 to 10 ng/mL). Subsequently, the resultant SN-38-resistant A549 cell lines were subjected to cloning by means of limiting dilution, to thereby establish six cloned SN-38-resistant A549 cell lines (A549/SN-38-1 to 6).
(§2) The A549 cell line or each of the A549/SN-38-1 to 6 was suspended in 10% FBS/Ham's F-12, and the resultant suspension was inoculated into a 96-well microplate, followed by culturing at 5% CO2 and 37° C. overnight. Thereafter, a solution of an anticancer drug in 10% FBS/Ham's F-12 (50 μL) was added to each of the wells, followed by culturing at 5% CO2 and 37° C. for 48 hours. After completion of culturing, the number of viable cells was counted by use of a viable cell counting reagent [TetraColor ONE (trade name), product of Seikagaku Corporation] according to the attached instruction manual. […] “Relative resistance value” is obtained by dividing the IC50 for an A549/SN-38 cell line by the IC50 for the A549 cell line. The greater the relative resistance value, the higher the level of acquired resistance.

A549/SN-38-2 cell line = experiment: Anticancer drug sensitivity test, A549/SN-38-2; assay type: cell-based, human
Method: as §1, §2

A549 cell line = experiment: Anticancer drug sensitivity test, A549 cell line; assay type: cell-based, human; conditions: Homo sapiens, culturing 48 hours, read-out: IC50
Method: as §2

A549/SN-38-5 cell line = experiment: Anticancer drug sensitivity test, A549/SN-38-5; assay type: cell-based, human
Method: as §1, §2

A549/SN-38-3 cell line = experiment: Anticancer drug sensitivity test, A549/SN-38-3; assay type: cell-based, human
Method: as §1, §2

A549/SN-38-6 cell line = experiment: Anticancer drug sensitivity test, A549/SN-38-6; assay type: cell-based, human
Method: as §1, §2

A549/SN-38-1 cell line = experiment: Anticancer drug sensitivity test, A549/SN-38-1; assay type: cell-based, human
Method: as §1, §2

| SMILES | EC50 (MES-SA/Dx5 cell line) [µg/mL] | EC50 (A549/SN-38-4 cell line [1]) [µg/mL] | Survival days Mean ± S.D. (P388/BCRP cell line; Table 6) [days] | T/C (P388/BCRP cell line; Table 6) [%] | other results |
| --- | --- | --- | --- | --- | --- |
| COc1ccc(/C(C#N)=C/c2ccc(Br)cc2)cc1OC [Compound 12, (Z)-3-(4-bromo-phenyl)-2-(3,4-dimethoxy-phenyl)-acrylonitrile] | > 1 | 0.28 (≈ 0.813 µM) | – | – | – |
| N#C/C(=C\c1ccc(O)cc1)c1ccc(O)cc1 [Compound 16, (Z)-2,3-bis-(4-hydroxy-phenyl)-acrylonitrile] | > 1 | 0.098 (≈ 0.413 µM) | 19.2 ± 0.4 | 160 | – |
| CC(=O)O[C@H]1C(=O)[C@@]2(C)[C@H]([C@H](OC(=O)c3ccccc3)[C@]3(O)C[C@H](OC(=O)[C@H](O)[C@@H](NC(=O)c4ccccc4)c4ccccc4)C(C)=C1C3(C)C)[C@]1(OC(C)=O)CO[C@@H]1C[C@@H]2O [Paclitaxel] | – | – | – | – | IC50 (A549/SN-38-4 cell line [2]; Homo sapiens, A549/SN-38-4, culturing 48 hours, read-out: IC50): 0.014 µg/mL (≈ 0.0164 µM); Relative resistance value (A549/SN-38-4 cell line [2]; IC50 for A549/SN-38-4 divided by IC50 for A549): (2.8); IC50 (A549/SN-38-2 cell line; Homo sapiens, A549/SN-38-2, culturing 48 hours, read-out: IC50): 0.012 µg/mL (≈ 0.0141 µM); Relative resistance value (A549/SN-38-2 cell line; IC50 for A549/SN-38-2 divided by IC50 for A549): (2.4); IC50 (A549 cell line): 0.0049 µg/mL (≈ 0.00574 µM); IC50 (A549/SN-38-5 cell line; Homo sapiens, A549/SN-38-5, culturing 48 hours, read-out: IC50): 0.0061 µg/mL (≈ 0.00714 µM); Relative resistance value (A549/SN-38-5 cell line; IC50 for A549/SN-38-5 divided by IC50 for A549): (1.2); IC50 (A549/SN-38-3 cell line; Homo sapiens, A549/SN-38-3, culturing 48 hours, read-out: IC50): 0.013 µg/mL (≈ 0.0152 µM); Relative resistance value (A549/SN-38-3 cell line; IC50 for A549/SN-38-3 divided by IC50 for A549): (2.7); IC50 (A549/SN-38-6 cell line; Homo sapiens, A549/SN-38-6, culturing 48 hours, read-out: IC50): 0.0071 µg/mL (≈ 0.00831 µM); Relative resistance value (A549/SN-38-6 cell line; IC50 for A549/SN-38-6 divided by IC50 for A549): (1.4); IC50 (A549/SN-38-1 cell line; Homo sapiens, A549/SN-38-1, culturing 48 hours, read-out: IC50): 0.0098 µg/mL (≈ 0.0115 µM); Relative resistance value (A549/SN-38-1 cell line; IC50 for A549/SN-38-1 divided by IC50 for A549): (2.0) |
| COc1ccc(/C(C#N)=C/c2ccccc2O)cc1OC [Compound 6, (Z)-2-(3,4-dimethoxy-phenyl)-3-(2-hydroxy-phenyl)-acrylonitrile] | > 1 | 0.098 (≈ 0.348 µM) | – | – | – |
| COc1ccc(/C(C#N)=C/c2ccc(O)cc2)cc1OC [Compound 1, (Z)-2-(3,4-dimethoxyphenyl)-3-(4-hydroxyphenyl)acrylonitrile] | > 1 | 0.051 (≈ 0.181 µM) | 19.4 ± 1.1 | 162 | – |
| COc1ccc(/C(C#N)=C/c2cccc(O)c2OC)cc1OC [Compound 9, (Z)-2-(3,4-dimethoxy-phenyl)-3-(3-hydroxy-2-methoxy-phenyl)-acrylonitrile] | > 1 | 0.028 (≈ 0.0899 µM) | – | – | – |
| COc1ccc(/C(C#N)=C/c2cccc(N)c2)cc1OC [Compound 68, (Z)-3-(3-amino-phenyl)-2-(3,4-dimethoxy-phenyl)-acrylonitrile hydrochloride] | – | – | – | – | Survival days Mean ± S.D. (P388/BCRP cell line; Table 7, hydrochloride): 18.8 ± 2.9 days; Resistance overcoming effect EC50 (A549/SN-38-4 cell line [1]): 0.048 µg/mL |
| COc1ccc(/C(C#N)=C/c2ccc(OC(=O)N3CCC(N4CCCCC4)CC3)cc2)cc1OC [Compound 2, 4-[(Z)-2-cyano-2-(3,4-dimethoxy-phenyl)-vinyl]-phenyl [1,4′]bipiperidinyl-1′-carboxylate] | > 1 | 0.41 (≈ 0.862 µM) | – | – | – |
| COc1ccc(/C(C#N)=C/c2ccc(O)c(O)c2)cc1OC [Compound 8, (Z)-3-(3,4-dihydroxy-phenyl)-2-(3,4-dimethoxy-phenyl)-acrylonitrile] | > 1 | 0.035 (≈ 0.118 µM) | 19.2 ± 0.8 | 160 | – |
| COc1cc(/C(C#N)=C/c2ccc(O)cc2)cc(OC)c1OC [Compound 15, (Z)-3-(4-hydroxy-phenyl)-2-(3,4,5-trimethoxy-phenyl)-acrylonitrile] | > 1 | 0.023 (≈ 0.0739 µM) | – | – | – |
| COc1ccc(/C(C#N)=C/c2ccc(OC(C)=O)cc2)cc1OC [Compound 3, 4-[(Z)-2-cyano-2-(3,4-dimethoxy-phenyl)-vinyl]-phenyl acetate] | > 1 | 0.02 | 19.8 ± 0.8 | 165 | – |
| COCCOCOc1ccc(/C=C(\C#N)c2ccc(OC)c(OC)c2)cc1 [Compound 4, (Z)-2-(3,4-dimethoxy-phenyl)-3-[4-(2-methoxy-ethoxymethoxy)-phenyl]-acrylonitrile] | > 1 | 0.079 (≈ 0.214 µM) | – | – | – |
| COc1ccc(/C(C#N)=C/c2cccc(F)c2)cc1OC [Compound 13, (Z)-2-(3,4-dimethoxy-phenyl)-3-(3-fluoro-phenyl)-acrylonitrile] | > 1 | 0.013 (≈ 0.0459 µM) | 20.6 ± 0.9 | 172 | – |
| COc1cc(/C=C(\C#N)c2ccc(OC)c(OC)c2)ccc1O [Compound 7, (Z)-2-(3,4-dimethoxy-phenyl)-3-(4-hydroxy-3-methoxy-phenyl)-acrylonitrile] | > 1 | 0.025 (≈ 0.0803 µM) | 20.0 ± 0.7 | 167 | – |
| CCOc1cc(/C=C(\C#N)c2ccc(OC)c(OC)c2)ccc1O [Compound 11, (Z)-2-(3,4-dimethoxy-phenyl)-3-(3-ethoxy-4-hydroxy-phenyl)-acrylonitrile] | > 1 | 0.047 (≈ 0.144 µM) | 19.4 ± 0.5 | 162 | – |
| COc1ccc(/C(C#N)=C/c2cccc(N)c2)cc1OC [Compound 57, (Z)-3-(3-amino-phenyl)-2-(3,4-dimethoxy-phenyl)-acrylonitrile] | – | 0.037 (≈ 0.132 µM) | – | – | Survival days Mean ± S.D. (P388/BCRP cell line; Table 7): 18.8 ± 0.8 days; T/C (P388/BCRP cell line; Table 7): 145% |
| COc1ccc(/C(C#N)=C/c2cccc(O)c2)cc1OC [Compound 5, (Z)-2-(3,4-dimethoxy-phenyl)-3-(3-hydroxy-phenyl)-acrylonitrile] | > 1 | 0.021 (≈ 0.0747 µM) | 19.2 ± 1.1 | 160 | – |
| CCCCOc1ccc(/C(C#N)=C/c2ccc(O)cc2)cc1 [Compound 14, (Z)-2-(4-butoxy-phenyl)-3-(4-hydroxy-phenyl)-acrylonitrile] | > 1 | 0.047 (≈ 0.16 µM) | – | – | – |
| COc1ccc(/C(C#N)=C/c2cc(C)c(O)c(C)c2)cc1OC [Compound 10, (Z)-2-(3,4-dimethoxy-phenyl)-3-(4-hydroxy-3,5-dimethyl-phenyl)-acrylonitrile] | > 1 | 0.023 (≈ 0.0743 µM) | – | – | – |

Source: patent publication US7371773B2, “Breast cancer resistance protein (BCRP) inhibitor” (Kabushiki Kaisha Yakult Honsha, priority 2003, dated 2008)
